Broadly, the pIC50 is the IC50 on a negative log10 scale, so that one unit is a factor of ten. Higher therefore signals a small IC50.

The record followed here is ChEMBL document CHEMBL3638677, “Bicyclic compounds and their uses as dual c-SRC/JAK inhibitors” (2015).

For test [1], the target named is Tyrosine-protein kinase JAK2 (Homo sapiens, UniProt O60674). Kind of test: TR-FRET Assay: Compounds were screened in the TR-FRET assay for JAK2 and c-Src kinase inhibition. Ultra light poly GT (Perkin Elmer) was used as the substrate for JAK2 and c-Src with the ATP concentration of 10 μM and 50 μM, respectively.
Chain of Tyrosine-protein kinase JAK2 (O60674 whole entry): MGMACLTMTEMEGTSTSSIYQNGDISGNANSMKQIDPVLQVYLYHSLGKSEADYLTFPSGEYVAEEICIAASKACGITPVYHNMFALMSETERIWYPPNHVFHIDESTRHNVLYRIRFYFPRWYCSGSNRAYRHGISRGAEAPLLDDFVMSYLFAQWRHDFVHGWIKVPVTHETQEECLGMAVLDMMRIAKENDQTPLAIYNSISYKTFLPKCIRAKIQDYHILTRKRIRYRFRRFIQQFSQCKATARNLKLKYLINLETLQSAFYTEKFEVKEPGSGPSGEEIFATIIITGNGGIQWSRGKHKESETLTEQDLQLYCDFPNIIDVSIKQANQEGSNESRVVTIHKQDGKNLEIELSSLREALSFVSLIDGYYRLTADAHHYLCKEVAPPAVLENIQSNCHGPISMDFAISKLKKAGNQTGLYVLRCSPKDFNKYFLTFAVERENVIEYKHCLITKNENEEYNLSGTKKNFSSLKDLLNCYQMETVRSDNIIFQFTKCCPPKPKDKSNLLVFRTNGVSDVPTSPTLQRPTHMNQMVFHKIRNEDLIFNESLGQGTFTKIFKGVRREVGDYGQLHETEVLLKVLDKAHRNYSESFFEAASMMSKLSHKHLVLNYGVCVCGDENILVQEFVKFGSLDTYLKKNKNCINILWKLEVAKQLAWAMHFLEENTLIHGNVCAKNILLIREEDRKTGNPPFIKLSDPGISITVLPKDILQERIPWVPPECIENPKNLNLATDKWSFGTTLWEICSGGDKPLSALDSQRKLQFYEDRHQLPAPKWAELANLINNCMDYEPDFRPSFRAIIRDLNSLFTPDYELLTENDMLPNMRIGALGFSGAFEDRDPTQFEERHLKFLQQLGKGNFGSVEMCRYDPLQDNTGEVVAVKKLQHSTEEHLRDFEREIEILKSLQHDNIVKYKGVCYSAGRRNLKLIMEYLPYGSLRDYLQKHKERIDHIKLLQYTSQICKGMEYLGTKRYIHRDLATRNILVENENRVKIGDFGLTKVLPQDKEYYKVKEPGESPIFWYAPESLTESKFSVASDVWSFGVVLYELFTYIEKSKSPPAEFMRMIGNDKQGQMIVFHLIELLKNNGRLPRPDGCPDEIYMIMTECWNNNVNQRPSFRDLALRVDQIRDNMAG
Test [2] has as its target Proto-oncogene tyrosine-protein kinase Src (Homo sapiens, UniProt P12931). Kind of test: TR-FRET Assay: Compounds were screened in the TR-FRET assay for JAK2 and c-Src kinase inhibition. Ultra light poly GT (Perkin Elmer) was used as the substrate for JAK2 and c-Src with the ATP concentration of 10 μM and 50 μM, respectively. The Eu-labelled anti-phospho tyrosine antibody (Perkin Elmer) was added at 1 nM and the fluorescence emission at 615 nm and 665 nm was measured with an excitation wavelength of 340 nm.

Structures are written as SMILES. pIC50: −log10 of the molar value.

Chain of Proto-oncogene tyrosine-protein kinase Src (P12931 2-536 limits assumed): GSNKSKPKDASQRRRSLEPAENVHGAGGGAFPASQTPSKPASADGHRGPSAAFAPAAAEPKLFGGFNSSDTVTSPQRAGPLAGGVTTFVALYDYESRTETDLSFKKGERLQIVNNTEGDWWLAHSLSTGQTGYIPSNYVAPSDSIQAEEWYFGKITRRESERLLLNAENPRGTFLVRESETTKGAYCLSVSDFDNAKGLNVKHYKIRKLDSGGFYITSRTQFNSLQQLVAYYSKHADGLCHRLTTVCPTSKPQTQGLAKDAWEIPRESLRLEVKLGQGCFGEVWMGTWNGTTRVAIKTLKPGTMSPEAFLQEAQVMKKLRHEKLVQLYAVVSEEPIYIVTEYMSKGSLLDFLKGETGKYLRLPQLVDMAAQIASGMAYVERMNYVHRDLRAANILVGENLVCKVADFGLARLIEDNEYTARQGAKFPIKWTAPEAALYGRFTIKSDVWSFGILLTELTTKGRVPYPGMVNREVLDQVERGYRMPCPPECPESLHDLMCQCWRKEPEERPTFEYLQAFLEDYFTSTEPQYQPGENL

For `Cc1ccc(NC(=O)c2cccc(C(C)(C)C)c2)cc1N1CCc2nc(Nc3ccc(N4CCN(C)CC4)cc3)ncc2C1=O`, the figures for the pIC50 in test [1] and in test [2] were 7.35 and 7.55, respectively.

For the molecule `Cc1ccc(NC(=O)c2cccc(C(F)(F)F)c2)cc1N1CCc2nc(Nc3ccc(C(=O)NC4CCN(C)CC4)cc3)ncc2C1`, the pIC50 was 8.15 in test [1] and 8.70 in test [2].

Consider `CN1CCN(c2ccc(Nc3ncc4c(n3)CCN(c3cc(NC(=O)c5cc(F)cc(C(F)(F)F)c5)ccc3Cl)C4=O)cc2)CC1`, for which, in test [1], the pIC50 is 8.05.

Regarding `CN1CCN(c2ccc(Nc3ncc4c(n3)CCN(c3cc(NC(=O)c5cccc(C(F)(F)F)c5)ccc3Cl)C4)cc2)CC1`, the pIC50 in test [1] is 8.06.
